{
  "source": "paper PMC12019622",
  "about": "(World Journal of Experimental Medicine, 2025)",
  "key": {"[1]": {"system": "blood-brain barrier (BBB)", "details": "cited from earlier work"}, "[2]": {"system": "HKBMM malignant meningioma cell line", "test": "Growth inhibition experiment", "format": "cell-based", "details": "read-out: IC50 value"}, "[3]": {"system": "IOMM-Lee malignant meningioma cell line", "test": "Growth inhibition experiment", "format": "cell-based", "details": "read-out: IC50 value"}, "Malignant meningioma": {"system": "Malignant meningioma", "details": "clinical, cited from earlier work; for partial response (PR) rate: malignant meningioma"}, "[4]": {"test": "Tissue distribution: blood concentration and brain distribution by HPLC", "format": "in vivo, C57BL/6 (B6) mice", "details": "male, C57BL/6, mouse, intraperitoneal, 2 mg/kg"}},
  "data": [
    {"smiles": "COc1cc(/C=C/C(=O)CC(=O)/C=C/c2ccc(O)c(OC)c2)ccc1O", "note": "[curcumin, Curcumin, reference compound]", "values": [
      {"measurement": "permeability across the blood-brain barrier (BBB)", "setting": "[1]", "value": "0.60 ± 0.67 × 10^−6 cm/s"},
      {"measurement": "IC50", "setting": "[2]", "value": 20, "unit": "µM"},
      {"measurement": "IC50", "setting": "[3]", "value": 13.3, "unit": "µM"}
    ]},
    {"smiles": "COc1cc(C=CC(=O)C=Cc2ccc(O)c(OC)c2)ccc1O", "note": "[GO-Y022, 1,5-bis (4-hydroxy-3-methoxyphenyl)-1,4-pentadiene-3-one]", "values": [
      {"measurement": "permeability across the blood-brain barrier (BBB)", "setting": "[1]", "value": "8.2 ± 1.3 × 10^−6 cm/s"},
      {"measurement": "IC50", "setting": "[2]", "value": 4.5, "unit": "µM"},
      {"measurement": "IC50", "setting": "[3]", "value": 4.3, "unit": "µM"}
    ]},
    {"smiles": "CCN(CC)CCNC(=O)c1c(C)[nH]c(/C=C2\\C(=O)Nc3ccc(F)cc32)c1C", "note": "[Sunitinib]", "values": [
      {"measurement": "6-month progression-free survival rate", "setting": "Malignant meningioma; meningioma", "value": 42, "unit": "%"},
      {"measurement": "PR rate", "setting": "Malignant meningioma; meningioma", "value": 5.55, "unit": "%"}
    ]},
    {"smiles": "NC(=O)NO", "note": "[hydroxyurea]", "values": [
      {"measurement": "partial response (PR) rate", "setting": "Malignant meningioma", "value": "0%-10%"}
    ]},
    {"smiles": "CC#C[C@]1(O)CC[C@H]2[C@@H]3CCC4=CC(=O)CCC4=C3[C@@H](c3ccc(N(C)C)cc3)C[C@@]21C", "note": "[mifepristone]", "values": [
      {"measurement": "partial response (PR) rate", "setting": "Malignant meningioma", "value": "1.4%-30.76%"}
    ]},
    {"smiles": "CC/C(=C(\\c1ccccc1)c1ccc(OCCN(C)C)cc1)c1ccccc1", "note": "[tamoxifen]", "values": [
      {"measurement": "partial response (PR) rate", "setting": "Malignant meningioma", "value": "5%-16.66%"}
    ]},
    {"smiles": "COCOc1cc(/C=C/C(=O)/C=C/c2cc(OCOC)cc(OCOC)c2)cc(OCOC)c1", "note": "[GO-Y030, (1E,4E)-1,5-bis [3,5-bis (methoxymethoxy)phenyl] penta-1,4-dien-3-one]", "values": [
      {"measurement": "concentration at 1 h", "setting": "[4]; brain", "value": 0, "unit": "ng/g"},
      {"measurement": "concentration at 3 h", "setting": "[4]; brain", "value": 26.8, "unit": "ng/g"},
      {"measurement": "concentration at 6 h", "setting": "[4]; brain", "value": 23.1, "unit": "ng/g"},
      {"measurement": "concentration at 1 h", "setting": "[4]; serum", "value": 18, "unit": "ng/mL"},
      {"measurement": "concentration at 3 h", "setting": "[4]; serum", "value": 46.7, "unit": "ng/mL"},
      {"measurement": "concentration at 6 h", "setting": "[4]; serum", "value": 58.2, "unit": "ng/mL"}
    ]}
  ]
}
